According to US10793601B2, “Therapeutic spalt-like transcription factor 4 (SALL4) peptide” (National University of Singapore, priority 2016, dated 2020):
Where “and” joins values, the source holds several entries; their conditions need not be identical. Identical values can stand only once. Ends that are not written are not given here.

How the values were obtained:
[1] = Plasma stability by LC-MS/MS
Description: PEN-FFW was incubated with human plasma (pH7.4) at 37° C. over a 24 hour period (5 timepoints). Incubations were performed at a concentration of 1 μM (final DMSO concentration 2.5%). Reactions were terminated at 0, 5, 10, 15, 30 min, or 0, 1, 2, 4 and 24 hour, by addition of 2 volumes of methanol containing 1% Formic acid. The samples were centrifuged (2500 rpm, 45 min, 4° C.) and the supernatants diluted with 2 volumes of 0.2% Formic acid (aq) (containing Metoprolol (internal standard)). […] The percentage of parent peptide remaining at each time point relative to the 0 min sample was calculated from LC-MS/MS peak area ratios (compound peak area/internal standard peak area).

PLC8024 tumor xenografts = assay: PLC8024 xenograft (Sorafenib-resistant HCC); assay type: in vivo, mice
Description: (§1) FIGS. 9A-9E. Clinical significance of PEN-FFW compared to Sorafenib. FIG. 9A: PEN-FFW treated SNU398 tumor xenografts were compared to that of Sorafenib treated xenografts. FIG. 9B: PEN-FFW treated PLC8024 tumor xenografts were compared to that of Sorafenib treated xenografts. Mice body weight was measured to access toxicity of various peptides. FIG. 9C: Body weight of mice at day 17. FIG. 9D: Differences of body weight compared to day 0 (As indicated by the arrow in far left of FIG. 7A). FIG. 9E: Body weight of mice at day 19th in the experiment shown in FIG. 9A comparing effect of Sorafenib and PEN-FFW. Data represent mean±s.d. (n=5).
Clinical significance of PEN-FFW was studied in vivo by benchmarking against current therapy using Sorafenib. PEN-FFW treated SNU398 tumor xenografts were compared to that of Sorafenib treated xenografts (FIG. 9A). […] Potential therapeutic effect of PEN-FFW in HCC patients that are refractory to Sorafenib treatment was studied also studied in vivo. using a HCC cell line, PLC8024 which is SALL4 positive, CD133+ and is both chemo- and radio-resistant (Li et al., BMC Cancer 2016, 16, 15; Ma et al., Oncogene 2008, 27: 1749-1758), for the xenograft study.

RBBp4 [2] = molecular target: T1, RBBp4 (Homo sapiens, UniProt Q09028); assay: Fluorescence polarization (FP) competition with FITC-labelled SALL4 WT peptide; assay type: binding; conditions: for IC50: displacement of FITC-SALL4 WT peptide from RBBp4
T1 construct: purchased SinoBiological
T1 sequence (Q09028 whole entry): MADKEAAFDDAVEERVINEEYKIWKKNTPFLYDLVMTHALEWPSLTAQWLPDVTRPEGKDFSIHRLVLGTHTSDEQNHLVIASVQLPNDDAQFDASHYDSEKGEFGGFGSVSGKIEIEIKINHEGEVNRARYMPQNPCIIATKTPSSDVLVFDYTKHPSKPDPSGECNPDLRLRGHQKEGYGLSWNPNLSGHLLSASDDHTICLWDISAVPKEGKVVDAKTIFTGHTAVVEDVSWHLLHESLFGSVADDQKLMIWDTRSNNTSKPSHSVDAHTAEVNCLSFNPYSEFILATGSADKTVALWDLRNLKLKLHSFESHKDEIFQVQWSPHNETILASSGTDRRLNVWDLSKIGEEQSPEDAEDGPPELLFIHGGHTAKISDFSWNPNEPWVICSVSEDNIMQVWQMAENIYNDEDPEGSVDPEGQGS
Description: (§2) FIGS. 3A-3E. Key residues involved in SALL4 (1-12)-RBBp4 binding. […] The difference in the binding free energy (ΔΔGbind) of the alanine mutants (ΔGmutant, Ala7 was mutated to glycine) and wild type (ΔGwild type) was calculated (ΔΔGbind=ΔGmutant−ΔGwild type). ΔΔGbind was tabulated (left) and plotted in a bar chart (right). […] Mutated residues are highlighted in red. The IC50 of each peptide, including WT, was determined by Fluorescence Polarization (FP). Different concentrations of each peptide were titrated into a mixture of 0.04 μM RBBp4 and 0.01 μM of C-labelled FITC-SALL4 WT peptide. Polarization was measured in mP. […] Pep-1 carrier was added to the peptide to facilitate cellular penetration of the peptides.
Peptides were titrated into a master mix of 0.045 μM RBBp4 and […] C-terminal FITC-labelled WT peptide (synthesized by Thermo Scientific). Reactions were incubated at room temperature before the plate was read with an Envision instrument (Perkin Elmer). IC50 values of peptides were determined using Prism (GraphPad).

SNU398 cells = assay: Cell viability assay in SNU398 cells; assay type: cell-based; conditions: for effect on cell number: SNU398, Pep-1 carrier added; for EC50: 72 h
Description: as §2
FIGS. 5A-5B. Development of a potent therapeutic peptide FFW.
SNU398 was grown in RPMI supplemented with 10% fetal bovine serum (FBS) at 37° C. in a humidified atmosphere of 5% CO2. 3000 cells were seeded in each well of a 96 well plate with 100 μL of medium. Before peptide treatment, cells were washed twice with PBS and treated with different concentrations of peptide in OPTIMEM (LifeTech). Media was added after 4 hrs of incubation at 37° C., and cells incubated for another 68 hrs. Tetrazolium (CellTiter96 AQueous One Solution Cell Proliferation Assay, Promega) was added after 72 hrs incubation with the peptides, and the plate was read at a plate reader at 490 nm after 1 hr of incubation in the dark at 37° C.

PTEN = PTEN transcript level by quantitative real-time PCR in SNU398 cells; assay type: cell-based; conditions: Q-PCR
RBBp4 [3] = molecular target: T1, RBBp4; assay: Isothermal titration calorimetry (ITC) of SALL4 peptide against RBBp4; conditions: 25° C., 1:1 binding model
Description: (§3) FIGS. 1A-1B. Binding affinity of WT SALL4 (1-12 aa) to RBBp4.
ITC was carried out with an Auto-iTC200 instrument from Microcal Inc. at 25° C. […] of RBBp4 in 50 mM Tris and 100 mM NaCl at pH 7.4 was loaded into the ITC cell. Sal14 peptide at […] was auto-loaded into the syringe. The titration was carried out with 18 injections of 2.4 μl, performed over a period of 30 min with stirring at 1000 rpm. The ITC data was analysed using Origin software from Microcal.

RBBp4 [4] = molecular target: T1, RBBp4; assay: Surface plasmon resonance (SPR), RBBp4 immobilised on CM5 chip; assay type: binding
Description: as §3
SPR studies were performed using a Biacore T200 biosensor (GE Healthsciences). ˜12,000 resonance units (RU) of RBBp4 were immobilised by amine coupling to the carboxymethylated dextran matrix of a Series S CM5 chip (Biacore, GE Healthcare). Multi cycle kinetics analysis was performed at 25° C. through seven injections of SALL4 peptide (0.5 μM-8 μM). The association time and flow rate were set at 60 s and 30 μl/min respectively. The sensograms obtained were of good quality and kinetic rate constants were determined by curve fitting.

SNU398 = assay: RNA-seq transcriptome analysis of treated SNU398; assay type: cell-based; conditions: for log2 fd versus Contr (PEN + Mut), ADORA2A-AS1: gene ADORA2A-AS1, SNU398, 8 hrs; for log2 fd versus Contr (PEN + Mut), AVPR2: gene AVPR2, SNU398, 8 hrs; for log2 fd versus Contr (PEN + Mut), CSAD: gene CSAD; for log2 fd versus Contr (PEN + Mut), CSAD / log2 fd versus Contr (PEN + Mut), SSPO: SNU398, 8 hrs; for log2 fd versus Contr (PEN + Mut), DNASE1L2: gene DNASE1L2, SNU398, 8 hrs; for log2 fd versus Contr (PEN + Mut), LOC619207: gene LOC619207, SNU398, 8 hrs; for log2 fd versus Contr (PEN + Mut), NEIL1: gene NEIL1, SNU398, 8 hrs; for log2 fd versus Contr (PEN + Mut), PRKXP1: gene PRKXP1, SNU398, 8 hrs; for log2 fd versus Contr (PEN + Mut), SSPO: gene SSPO
Description: SNU398 were treated PEN, PEN-MUT, PEN-WT & PEN-FFW for 8 hrs and paired-end RNA-seq was performed for the treated samples. RNA-seq reads of each sample were mapped to hg19 using the STAR aligner. Normalization between the samples was based on the proportionality of the numbers of the mapped reads. The expression fold change of a transcript was obtained using linear regression of the reads between the two samples cross all exons. Differential expression between two samples was selected by using the fold change cut off of 2. Hierarchical clustering was performed based on average linkage to generate the clustering tree as well as heat maps. For identification of enriched gene sets or pathways, Gene Set Enrichment Analysis (GSEA) was performed based on the normalized data and using the GSEA tool (broad.mit.edu/gsea/) with msigdb.v5.0.

SNU398 tumor xenografts = assay: SNU398 xenograft in NSG mice; assay type: in vivo, NOD/SCID/gamma mice; conditions: for effect on tumor growth: SNU398 xenograft, tumor volume against time; for tumor weight: mean, tumors resected on day 20, five i.p. injections
Description: FIGS. 7A-7E. […] FIG. 7A: 7.2×10^5 SNU398 cells were inoculated subcutaneously into the right flank of NOD/SCID/gamma mice (NSG mice). Tumors were allowed to grow for one week before peptide treatments were administered every alternate day for a total of five injections. FIG. 7B: Tumor growth was documented by plotting tumor volume against time. […] FIG. 7C: Relative size of tumors resected on day 20. FIG. 7D: tumor weight was determined (n=5). […] FIG. 7E: Total RNA was isolated from the resected tumors and expression of PTEN was measured using real-time PCR.
as §1, with “Clinical significance of PEN-FFW compared to Sorafenib.” left out
All mice were treated in accordance with Responsible Care and Use of Laboratory animals. In the SNU398 in vivo studies, 6-8-week-old female C.B-17 severe combined immunodeficient (SCID) mice (NSG) were inoculated s.c. into the flank with 7.2×10^5 cells in 2:1 PBS/Matrigel (BD Biosciences). The tumours were then allowed to develop to the size of 50-70 mm3 before intraperitoneal injections of the different peptides were given at two to three-day intervals for a total of 5 injections. Mice were randomly grouped in sets of six and treated with PEN (penetratin control), PEN-MUT (mutant control), PEN-WT (wild type control) and PEN-FFW (peptide 47). Tumor volumes were measured every 5 days and tumor weight were measured at the end point. For PEN control, 22.5 mg/kg were given; for PEN-MUT, PEN-WT and PEN-FFW, 35.6 mg/kg, 37 mg/kg and 36 mg/kg were given respectively to the mice according to their body weight Tumor measurements were taken twice weekly using Vernier calipers. Tumor volume was estimated using the following formula: V=0.5×width×width×length. When tumors approached ˜50 mm3, mice were randomized into groups of 5 animals each and received peptides treatment three times weekly by i.p. injection. All statistical analysis was done using a one-way ANOVA and Student's T-test.

CC1CC(OC(=O)C(O)c2ccccc2)CC(C)(C)N1C (centres unmarked) [Eucatropine]
peptide/compound remaining in the plasma ([1]; human plasma, 37° C., 1 μM, after 30 min): 40% | remaining at 0.5 h, 1 μM ([1]; human, pH 7.4): 40%

CNC(=O)c1cc(Oc2ccc(NC(=O)Nc3ccc(Cl)c(C(F)(F)F)c3)cc2)ccn1 [Sorafenib, reference compound]
tumor growth as compared to the control group (PLC8024 tumor xenografts): 1.5 fold

Ac-ARKQAKPQHI-NH2 [Peptide 8]
IC50 (RBBp4 [2]): > 20000 nM

Ac-KRKQAKPQHI-NH2 [Peptide 17]
IC50 (RBBp4 [2]): 3800 ± 500 nM

Ac-MSARAQAKPQHI-NH2 (N-terminus and C-terminus assumed) [MUT]
effect on cell number (SNU398 cells): does not | increase in PTEN expression compared to untreated cells (PTEN): no significant change

Ac-MSRRKQAKPQ-NH2 [Peptide 3]
IC50 (RBBp4 [2]): 800 nM

Ac-MSRRKQAKPQHI-NH2 [Peptide 1, reference compound]
Kd (RBBp4 [3]): 1040 ± 60 nM | koff (RBBp4 [4]): 0.026 ± 0.00045 s⁻¹ | kon (RBBp4 [4]): 16800 ± 460 M⁻¹ s⁻¹ | IC50 (RBBp4 [2]): 1040 ± 200 nM | effect on cell number (SNU398 cells): exerts an inhibitory effect on cell number | increase in PTEN expression compared to untreated cells (PTEN): 3 fold | log2 fd versus Contr (PEN + Mut), ADORA2A-AS1 (SNU398): 1.05 | log2 fd versus Contr (PEN + Mut), AVPR2 (SNU398): 0.11 | log2 fd versus Contr (PEN + Mut), CSAD (SNU398): 0.25 | log2 fd versus Contr (PEN + Mut), DNASE1L2 (SNU398): 0.42 | log2 fd versus Contr (PEN + Mut), LOC619207 (SNU398): 0.36 | log2 fd versus Contr (PEN + Mut), NEIL1 (SNU398): 0.30 | log2 fd versus Contr (PEN + Mut), PRKXP1 (SNU398): 0.62 | log2 fd versus Contr (PEN + Mut), SSPO (SNU398): 0.99

Ac-RAKQAKPQHI-NH2 [Peptide 9]
IC50 (RBBp4 [2]): > 20000 nM

Ac-RKQAKPQHI-NH2 [Peptide 7]
IC50 (RBBp4 [2]): > 20000 nM

Ac-RRAQAKPQHI-NH2 [Peptide 10]
IC50 (RBBp4 [2]): > 20000 nM

Ac-RRKFAKFQWI-NH2 [Peptide 46]
IC50 (RBBp4 [2]): 23 nM | increase in affinity as compared with the original 12-residue WT peptide (RBBp4 [2]; ratio of FP IC50 values): > 56 fold | log2 fd versus Contr (PEN + Mut), ADORA2A-AS1 (SNU398): 2.17 | log2 fd versus Contr (PEN + Mut), AVPR2 (SNU398): 1.53 | log2 fd versus Contr (PEN + Mut), CSAD (SNU398): 1.09 | log2 fd versus Contr (PEN + Mut), DNASE1L2 (SNU398): 1.11 | log2 fd versus Contr (PEN + Mut), LOC619207 (SNU398): 1.33 | log2 fd versus Contr (PEN + Mut), NEIL1 (SNU398): 1.11 | log2 fd versus Contr (PEN + Mut), PRKXP1 (SNU398): 2.12 | log2 fd versus Contr (PEN + Mut), SSPO (SNU398): 2.40

Ac-RRKFAKPQHI-NH2 [Peptide 24]
enhancement in binding affinity over that of peptide 6 (RBBp4 [2]; ratio of FP IC50 values): 7 fold

Ac-RRKLAKPQHI-NH2 [Peptide 23]
IC50 (RBBp4 [2]): 270 ± 100 nM

Ac-RRKQAKAQHI-NH2 [Peptide 13]
IC50 (RBBp4 [2]): 270 ± 30 nM

Ac-RRKQAKFQHI-NH2 [Peptide 34]
IC50 (RBBp4 [2]): 170 nM

Ac-RRKQAKLQHI-NH2 [Peptide 33]
IC50 (RBBp4 [2]): 4400 ± 1100 nM

Ac-RRKQAKPAHI-NH2 [Peptide 14]
IC50 (RBBp4 [2]): 120 ± 10 nM

Ac-RRKQAKPLHI-NH2 [Peptide 38]
IC50 (RBBp4 [2]): 460 ± 100 nM

Ac-RRKQAKPQHA-NH2 [Peptide 16]
IC50 (RBBp4 [2]): 460 ± 200 nM

Ac-RRKQAKPQWI-NH2 [Peptide 41]
IC50 (RBBp4 [2]): 120 nM | enhancement in binding affinity over that of peptide 6 (RBBp4 [2]; ratio of FP IC50 values): 3 fold

Ac-RRKQRKPQHI-NH2 [Peptide 26]
IC50 (RBBp4 [2]): 460 ± 100 nM

Ac-RRRQAKPQHI-NH2 [Peptide 6]
IC50 (RBBp4 [2]): 360 nM

Ac-SRRKQAKPQHI-NH2 [Peptide 5]
IC50 (RBBp4 [2]): 600 nM

RQIKIWFQNRRMKWKK [PEN]
effect on tumor growth (SNU398 tumor xenografts): neither peptide was able to inhibit tumor growth | tumor weight (SNU398 tumor xenografts): 1550.78 mg

RQIKIWFQNRRMKWKKMSARAQAKPQHI [PEN-MUT]
EC50 (SNU398 cells): > 100000 nM | effect on tumor growth (SNU398 tumor xenografts): neither peptide was able to inhibit tumor growth | tumor weight (SNU398 tumor xenografts): 1273.46 mg

RQIKIWFQNRRMKWKKMSRRKQAKPQHI [PEN-WT]
EC50 (SNU398 cells): 30000 nM | effect on tumor growth (SNU398 tumor xenografts): markedly impaired tumor growth | tumor weight (SNU398 tumor xenografts): 563.46 mg and 564 mg
